Patent US7317028B2, “Cell differentiation inducer” (Schering Aktiengesellschaft, priority 1996, dated 2008)

Legend:
A2780 cells = assay: Test for induction of differentiation in A2780 cells (ALP activity, ALPmin); type: cell-based, human; conditions: Homo sapiens, 72 h; A2780 cells, 3 days incubation; minimum concentration of the drug inducing increase of ALP activity
Experimental: Increase of alkaline phosphatase (ALP) activity is known as an indicator for differentiation of human colon cancer cells. […] Thus, differentiation inducing action was evaluated using ALP activity as an indicator.
To each well of a 96-well plate was placed 0.1 mL of A2780 cells (15,000 cells/well) and the next day was added 0.1 mL of a sequential dilute of test solution with the medium. […] The reaction was quenched with 0.05 mL/well of 3N sodium hydroxide aq. For each well, an absorbance at 405 nm was measured to determine the minimum concentration of the drug inducing increase of ALP activity (ALPmin).

Row | Structure (SMILES) | melting point | minimal effective concentration (A2780 cells) [µM]
1 | COc1cc(C(=O)NCc2ccc(C(=O)Nc3ccccc3N)cc2)cc(OC)c1OC [Example 7, N-(2-aminophenyl)-4-[N-(3,4,5-trimethoxybenzoyl)aminomethyl]benzamide] | 208 to 210 °C (dec.) | 1
2 | Cc1cc(C(=O)NCc2ccc(C(=O)Nc3ccccc3N)cc2)sn1 [Example 26, N-(2-aminophenyl)-4-[N-(3-methylisothiazol-5-yl)carbonylaminomethyl]benzamide] | 168 to 169 °C | 1
3 | Nc1cccc(CC(=O)NCc2ccc(C(=O)Nc3ccccc3N)cc2)c1 [Example 28, N-(2-aminophenyl)-4-[N-(3-aminophenyl)acetylaminomethyl]benzamide] | 171 to 176 °C | 10
4 | Nc1ccccc1NC(=O)c1ccc(CNC(=O)Cc2cccnc2)cc1 [Example 29, N-(2-aminophenyl)-4-[N-(pyridin-3-yl)acetylaminomethyl]benzamide] | 127 °C | 10
5 | Nc1ccccc1NC(=O)c1ccc(CNC(=O)CCc2cccnc2)cc1 [Example 30, N-(2-aminophenyl)-4-[N-[3-(pyridin-3-yl)propionyl]aminomethyl]benzamide] | 183 to 186 °C | 0.1
6 | Nc1ccccc1NC(=O)c1ccc(CNC(=O)CCC(=O)c2cccnc2)cc1 [Example 31, N-(2-aminophenyl)-4-[N-[4-(pyridin-3-yl)-1,4-dioxobutyl]aminomethyl]benzamide] | 145 to 147 °C (dec.) | 10
7 | Nc1ccccc1NC(=O)c1ccc(CNC(=O)COc2cncc(Cl)c2)cc1 [Example 32, N-(2-aminophenyl)-4-[N-(5-chloropyridin-3-yl)oxyacetylaminomethyl]benzamide] | 199 to 201 °C | 3
8 | COc1ccc(N)c(NC(=O)c2ccc(CNC(=O)COc3cccnc3)cc2)c1 [Example 33, N-(2-amino-5-methoxyphenyl)-4-[N-(pyridin-3-yl)oxyacetylaminomethyl]benzamide] | 141 to 144 °C | 0.3
9 | Nc1ccccc1NC(=O)c1ccc(CNC(=O)CC(=O)c2cccnc2)cc1 [Example 34, N-(2-aminophenyl)-4-[N-[3-(pyridin-3-yl)-1,3-dioxopropyl]aminomethyl]benzamide] | 204 to 206 °C | 0.1
10 | Nc1ccccc1NC(=O)c1ccc(CNC(=O)c2cc3ncccc3o2)cc1 [Example 38, N-(2-aminophenyl)-4-[N-(furo[3,2-b]pyridin-2-yl)carbonylaminomethyl]benzamide] | 191 °C (dec.) | 3
11 | Nc1ccccc1NC(=O)c1ccc(CNC(=O)c2cc3ccncc3o2)cc1 [Example 39, N-(2-aminophenyl)-4-[N-(furo[2,3-c]pyridin-2-yl)carbonylaminomethyl]benzamide] | 210 °C (dec.) | 0.1
12 | O=C(Cc1cccnc1)NCc1ccc(C(=O)Nc2ccccc2O)cc1 [Example 42, N-(2-hydroxyphenyl)-4-[N-(pyridin-3-yl)acetylaminomethyl]benzamide] | 201 to 202 °C | 10
13 | Nc1ccccc1NC(=O)c1ccc(CNC(=O)OCc2ccc(-n3ccnc3)cc2)cc1 [Example 50, N-(2-aminophenyl)-4-[N-(4-(imidazol-1-yl)benzyl)oxycarbonylaminomethyl]benzamide] | 195 to 198 °C | 1
14 | Nc1ccccc1NC(=O)c1ccc(CNC(=O)OCc2ccccn2)cc1 [Example 51, N-(2-aminophenyl)-4-[N-(pyridin-2-yl)methoxycarbonylaminomethyl]benzamide] | 166 to 167 °C | 1
15 | Nc1ccccc1NC(=O)c1ccc(CNC(=O)OCCc2ccccn2)cc1 [Example 52, N-(2-aminophenyl)-4-[N-[2-(pyridin-2-yl)ethoxycarbonyl]aminomethyl]benzamide] | 146 to 148 °C | 1
16 | Cc1cccc(COC(=O)NCc2ccc(C(=O)Nc3ccccc3N)cc2)n1 [Example 53, N-(2-aminophenyl)-4-[N-(6-methylpyridin-2-yl)methoxycarbonylaminomethyl]benzamide] | 138 °C | 3
17 | Nc1ccccc1NC(=O)c1ccc(CNC(=O)OCCc2cccnc2)cc1 [Example 54, N-(2-aminophenyl)-4-[N-[2-(pyridin-3-yl)ethoxycarbonyl]aminomethyl]benzamide] | 120 to 125 °C | 1
18 | Nc1ccccc1NC(=O)c1ccc(CNC(=O)OCCCc2cccnc2)cc1 [Example 55, N-(2-aminophenyl)-4-[N-[3-(pyridin-3-yl)propyloxycarbonyl]aminomethyl]benzamide] | 121 to 124 °C | 1
19 | Cc1ncccc1COC(=O)NCc1ccc(C(=O)Nc2ccccc2N)cc1 [Example 56, N-(2-aminophenyl)-4-[N-(2-methylpyridin-3-yl)methoxycarbonylaminomethyl]benzamide] | 164 to 165 °C | 3
20 | Nc1ccccc1NC(=O)c1ccc(NC(=O)CCCc2cccnc2)cc1 [Example 118, N-(2-aminophenyl)-4-[[4-(pyridin-3-yl)butanoyl]amino]benzamide] | 165 to 167 °C (dec.) | –
21 | Nc1ccccc1NC(=O)c1ccc(CNc2c(NCc3cccnc3)c(=O)c2=O)cc1 [Example 144, N-(2-aminophenyl)-4-[N-[3-[(pyridin-3-yl)methylamino]cyclobuten-1,2-dion-4-yl]aminomethyl]benzamide] | 230 °C | –

Continued, in another order:

Row | melting point | Structure (SMILES) | minimal effective concentration (A2780 cells) [µM]
22 | 206 to 209 °C | Cl.Nc1ccccc1NC(=O)c1ccc(CNC(=O)c2ccccc2)cc1 [Example 1, N-(2-aminophenyl)-4-(N-benzoylaminomethyl)benzamide hydrochloride] | 1
23 | 201 to 204 °C (dec.) | Nc1ccccc1NC(=O)c1ccc(CNC(=O)c2ccccc2Cl)cc1 [Example 2, N-(2-aminophenyl)-4-[N-(2-chlorobenzoyl)aminomethyl]benzamide] | 3
24 | 210 to 212 °C (dec.) | Cl.Nc1ccccc1NC(=O)c1ccc(CNC(=O)c2ccccc2[N+](=O)[O-])cc1 [Example 3, N-(2-aminophenyl)-4-[N-(2-nitrobenzoyl)aminomethyl]benzamide hydrochloride] | 3
25 | 182 to 185 °C | COc1cccc(C(=O)NCc2ccc(C(=O)Nc3ccccc3N)cc2)c1 [Example 5, N-(2-aminophenyl)-4-[N-(3-methoxybenzoyl)aminomethyl]benzamide] | 1
26 | 149 to 151 °C | COc1ccc(C(=O)NCc2ccc(C(=O)Nc3ccccc3N)cc2)cc1 [Example 6, N-(2-aminophenyl)-4-[N-(4-methoxybenzoyl)aminomethyl]benzamide] | 1
27 | 216 to 219 °C (dec.) | CN(C)c1ccc(C(=O)NCc2ccc(C(=O)Nc3ccccc3N)cc2)cc1 [Example 8, N-(2-aminophenyl)-4-[N-[4-(N,N-dimethyl)aminobenzoyl]aminomethyl]benzamide] | 1
28 | 243 to 246 °C | Nc1ccccc1NC(=O)c1ccc(CNC(=O)c2ccc(C(F)(F)F)cc2)cc1 [Example 9, N-(2-aminophenyl)-4-[N-(4-trifluoromethylbenzoyl)aminomethyl]benzamide] | 1
29 | 172 to 173 °C | Cc1cccc(C(=O)NCc2ccc(C(=O)Nc3ccccc3N)cc2)n1 [Example 13, N-(2-aminophenyl)-4-[N-(6-methylpicolinoyl)aminomethyl]benzamide] | 1
30 | 191 to 194 °C (dec.) | Cc1ncccc1C(=O)NCc1ccc(C(=O)Nc2ccccc2N)cc1 [Example 15, N-(2-aminophenyl)-4-[N-(2-methylnicotinoyl)aminomethyl]benzamide] | 3
31 | 186 to 190 °C (dec.) | Cc1ccc(C(=O)NCc2ccc(C(=O)Nc3ccccc3N)cc2)cn1 [Example 16, N-(2-aminophenyl)-4-[N-(6-methylnicotinoyl)aminomethyl]benzamide] | 3
32 | 176 to 178 °C (dec.) | Nc1ccccc1NC(=O)c1ccc(CNC(=O)c2cccnc2Cl)cc1 [Example 17, N-(2-aminophenyl)-4-[N-(2-chloronicotinoyl)aminomethyl]benzamide] | 3
33 | 205 to 208 °C (dec.) | Nc1ccccc1NC(=O)c1ccc(CNC(=O)c2ccc(Cl)nc2)cc1 [Example 18, N-(2-aminophenyl)-4-[N-(6-chloronicotinoyl)aminomethyl]benzamide] | 3
34 | 216 to 220 °C (dec.) | Nc1ccccc1NC(=O)c1ccc(CNC(=O)c2ccc[nH]2)cc1 [Example 23, N-(2-aminophenyl)-4-[N-(pyrrol-2-yl)carbonylaminomethyl]benzamide] | 1
35 | 183 to 185 °C (dec.) | Nc1ccccc1NC(=O)c1ccc(CNC(=O)c2ccno2)cc1 [Example 25, N-(2-aminophenyl)-4-[N-(isoxazol-5-yl)carbonylaminomethyl]benzamide] | 3
36 | 209 to 210 °C | Nc1ccccc1NC(=O)c1ccc(CNC(=O)c2ccc3ncccc3c2)cc1 [Example 37, N-(2-aminophenyl)-4-[N-(quinolin-6-yl)carbonylaminomethyl]benzamide] | 1
